Among the data in patent US10442836B2, “1-(chloromethyl)-2,3-dihydro-1H-benzo[E]indole dimer antibody-drug conjugate compounds, and methods of use and treatment” (priority 2013, dated 2019) are melting point and cell-killing activity values, retold here.

B1: ADC 125: Thio Hu Anti-CD33 15G15.33 HC A118C-MC-MMED-(CBI dimer phos); linker-CBI intermediate 57 (conjugate)
VH: QVQLVQSGAEVKKPGSSVKVSCKASGGIFSNHAISWVRQAPGQGLEWMGGIIPIFGTANYAQKFQGRVTITADESTSTAFMELSSLRSEDTAVYYCAREWADVFDIWGQGTMVTVSS
VL: EIVLTQSPLSLPVTPGEPASISCRSSQSLLHSNGYNYLDWYLQKPGQSPQLLIYLGVNSVSGVPDRFSGSGSGTDFTLKISRVEAEDVGVYYCMQALQTPWTFGQGTKVEIK
B2: ADC 129: Thio Hu Anti-CD33 15G15.33 HC A118C-MC-ED-(CBI dimer DVB phos); linker-CBI intermediate 68 (conjugate)
VH: QVQLVQSGAEVKKPGSSVKVSCKASGGIFSNHAISWVRQAPGQGLEWMGGIIPIFGTANYAQKFQGRVTITADESTSTAFMELSSLRSEDTAVYYCAREWADVFDIWGQGTMVTVSS
VL: EIVLTQSPLSLPVTPGEPASISCRSSQSLLHSNGYNYLDWYLQKPGQSPQLLIYLGVNSVSGVPDRFSGSGSGTDFTLKISRVEAEDVGVYYCMQALQTPWTFGQGTKVEIK
B3: ADC 127: Thio Hu Anti-CD33 15G15.33 HC A118C-MC-ED-(CBI dimer DVB diphos); linker-CBI intermediate 66 (conjugate)
VH: QVQLVQSGAEVKKPGSSVKVSCKASGGIFSNHAISWVRQAPGQGLEWMGGIIPIFGTANYAQKFQGRVTITADESTSTAFMELSSLRSEDTAVYYCAREWADVFDIWGQGTMVTVSS
VL: EIVLTQSPLSLPVTPGEPASISCRSSQSLLHSNGYNYLDWYLQKPGQSPQLLIYLGVNSVSGVPDRFSGSGSGTDFTLKISRVEAEDVGVYYCMQALQTPWTFGQGTKVEIK

Test system in the first series: not given
Assay: not given
Conditions: not given
As for `CN(CCN(C)C(=O)Oc1cc2c(c3ccccc13)[C@H](CCl)CN2C(=O)CCCC(=O)N1C[C@@H](CCl)c2c1cc(OP(=O)(O)O)c1ccccc21)C(=O)CCCCCN1C(=O)C=CC1=O`, the melting point is 191 to 194 °C (dec.).
As for `CN1CCN(C(=O)Oc2cc3c(c4ccccc24)C(CCl)CN3C(=O)/C=C/c2ccc(/C=C/C(=O)N3C[C@@H](CCl)c4c3cc(OC(=O)N3CCN(C)CC3)c3ccccc43)cc2NC(=O)CCNC(=O)CCCCCN2C(=O)C=CC2=O)CC1` (stereo partly drawn), the melting point was 268 °C (dec.).
The molecule `CN(CCN(C)C(=O)Oc1cc2c(c3ccccc13)[C@H](CCl)CN2C(=O)CCCC(=O)N1C[C@@H](CCl)c2c1cc(O)c1ccccc21)C(=O)CBr` registered a melting point of 167 to 170 °C.

A further series deals with EOL-1 cells. Kind of series: EOL-1 in vitro cell viability (CellTiter-Glo cell proliferation assay). The class given is cell-based, human. Particulars: EOL-1 in vitro cell viability at 3 days versus concentrations (μg/ml). The source says:
The CellTiter-Glo® Luminescent Cell Viability Assay is a commercially available (Promega Corp., Madison, Wis.), homogeneous assay method based on the recombinant expression of Coleoptera luciferase (U.S. Pat. Nos. 5,583,024; 5,674,713; 5,700,670). This cell proliferation assay determines the number of viable cells in culture based on quantitation of the ATP present, an indicator of metabolically active cells (Crouch et al (1993) J. Immunol. Meth. 160:81-88; U.S. Pat. No. 6,602,677). The CellTiter-Glo® Assay was conducted in 96 well format, making it amenable to automated high-throughput screening (HTS) (Cree et al (1995) AntiCancer Drugs 6:398-404). The homogeneous assay procedure involves adding the single reagent (CellTiter-Glo® Reagent) directly to cells cultured in serum-supplemented medium. Cell washing, removal of medium and multiple pipetting steps are not required. The system detects as few as 15 cells/well in a 384-well format in 10 minutes after adding reagent and mixing. The cells may be treated continuously with ADC, or they may be treated and separated from ADC.
The homogeneous “add-mix-measure” format results in cell lysis and generation of a luminescent signal proportional to the amount of ATP present. The amount of ATP is directly proportional to the number of cells present in culture. […] Viable cells are reflected in relative luminescence units (RLU). […]
Efficacy of ADC was measured by a cell proliferation assay employing the following protocol ([…] GLO™ Luminescent Cell Viability Assay, Promega Corp. Technical Bulletin TB288; Mendoza et al (2002) Cancer Res. 62:5485-5488): • 1. […] The plate was incubated at room temperature for 10 minutes to stabilize the luminescence signal. • 8. Luminescence was recorded and reported in graphs as RLU=relative luminescence units. • Data are plotted as the mean of luminescence for each set of replicates, with standard deviation error bars. […]
On the technique in general: Cellular ATP, detected with luciferase, serves as a proxy for viable cell number.
As for B1, the cell-killing activity result is on record as “modest dose response cell-killing activity”.
For the molecule B2, the cell-killing activity result is recorded as “potent, dose responsive cell-killing activity”.
As to B3, the cell-killing activity result is “potent, dose responsive cell-killing activity”.

The melting point is the temperature of the solid-liquid transition.
